“Also recorded” adds a separate entry of the source.
Key:
hTRPM5 = target: T1, hTRPM5 (Homo sapiens, UniProt Q9NZQ8); assay: hTRPM5 membrane potential dye FLIPR assay in HEK-293 cells (transient or stable clone); assay type: cell-based; settings: for dependence of agonist-induced change in membrane potential on extracellular Na+: NaCl versus NMDG replacement; for change in membrane potential in hTRPM5-expressing HEK293 cells: agonist of an expressed receptor (endogenous muscarinic, transfected H1 or AT1) or Ca2+ ionophore, dye R-8034; for change in membrane potential in hTRPM5-expressing cells not transfected with the agonist's receptor: unrelated agonist control
T1 construct: expressed in transfected cells
T1 sequence (Q9NZQ8 1-1165): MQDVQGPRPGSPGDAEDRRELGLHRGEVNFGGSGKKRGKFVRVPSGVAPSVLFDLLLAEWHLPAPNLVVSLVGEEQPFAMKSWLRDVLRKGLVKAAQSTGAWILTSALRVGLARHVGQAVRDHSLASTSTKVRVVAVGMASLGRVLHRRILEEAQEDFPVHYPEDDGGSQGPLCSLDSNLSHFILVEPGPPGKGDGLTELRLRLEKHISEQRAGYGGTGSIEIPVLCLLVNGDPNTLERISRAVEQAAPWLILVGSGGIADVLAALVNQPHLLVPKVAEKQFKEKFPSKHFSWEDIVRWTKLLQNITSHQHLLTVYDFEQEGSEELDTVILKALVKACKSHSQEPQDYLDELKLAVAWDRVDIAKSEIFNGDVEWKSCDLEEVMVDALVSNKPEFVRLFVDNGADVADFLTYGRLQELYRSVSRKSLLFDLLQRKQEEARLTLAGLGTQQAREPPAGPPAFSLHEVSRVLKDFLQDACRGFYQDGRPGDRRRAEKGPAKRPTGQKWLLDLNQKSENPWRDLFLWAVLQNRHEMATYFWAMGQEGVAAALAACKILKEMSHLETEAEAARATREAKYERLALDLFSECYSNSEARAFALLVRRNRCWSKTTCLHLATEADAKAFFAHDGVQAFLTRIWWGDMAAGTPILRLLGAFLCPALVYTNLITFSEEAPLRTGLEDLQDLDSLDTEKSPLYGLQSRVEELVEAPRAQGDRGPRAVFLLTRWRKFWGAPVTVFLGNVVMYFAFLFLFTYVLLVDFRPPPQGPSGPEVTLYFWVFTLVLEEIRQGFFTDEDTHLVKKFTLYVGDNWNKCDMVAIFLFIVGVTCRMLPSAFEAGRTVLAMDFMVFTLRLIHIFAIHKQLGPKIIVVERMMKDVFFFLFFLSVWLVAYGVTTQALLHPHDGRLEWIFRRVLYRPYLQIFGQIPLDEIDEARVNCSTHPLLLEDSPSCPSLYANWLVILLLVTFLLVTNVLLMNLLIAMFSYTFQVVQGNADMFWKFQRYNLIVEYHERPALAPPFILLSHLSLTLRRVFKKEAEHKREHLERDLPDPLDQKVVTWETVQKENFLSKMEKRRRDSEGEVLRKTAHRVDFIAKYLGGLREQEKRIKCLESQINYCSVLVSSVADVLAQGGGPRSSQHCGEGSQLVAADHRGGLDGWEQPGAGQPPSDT
Protocol: (§1) HEK-293 cells (about 50-70% confluency) contained in 10 cm dishes are transfected with 5 μg of TRPM5 DNA and pcDNA3 and 2 μg of RFP plasmids using TransH293.
(§2) After 24 hours, the cells are split into 384-well plates at ˜50,000 cells/well.
(§3) At 48 hours post-transfection the cells are loaded with membrane potential dyes in HBSS for 60 minutes at room temperature.
Compounds plates are prepared in HBSS.
HEK-293 cells transfected with TRPM5 nucleic acid sequence containing plasmid that comprises neo marker and stable cell clones are selected using neomycin.
Screened clones are screened using membrane potential dyes and FLIPR, for a GPCR-induced change in membrane potential.
This experiment is contained in FIG. 10. In the experiment HEK293 cells were transfected with a plasmid encoding hTRPM5 in pcDNA3.Neo. 48 hours later cells were put in selection media (500 ug/ml neomycin) and stable clones were selected and expanded. Clone #51 was further characterized for carbachol-induced hTRPM5 activation. Cells were loaded with a membrane potential dye (R-8034; Molecular Devices Corporation). […]

mouse TRPM5 = target: T2, mouse TRPM5 (Mus musculus, UniProt Q9JJH7); assay: Mouse TRPM5 membrane potential dye assay in transfected HEK293 cells; assay type: cell-based; settings: for change in membrane potential in mouse TRPM5-expressing HEK293 cells: agonist of an expressed receptor or Ca2+ ionophore, dye R-8034; for change in membrane potential in mouse TRPM5 cells not transfected with the agonist's receptor: unrelated agonist control
T2 construct: expressed in transfected cells; host or cells: HEK293, in some experiments co-transfected with the AT1 or H1 receptor or stably expressing mT2R5 and Galpha15
T2 sequence (Q9JJH7 1-1158): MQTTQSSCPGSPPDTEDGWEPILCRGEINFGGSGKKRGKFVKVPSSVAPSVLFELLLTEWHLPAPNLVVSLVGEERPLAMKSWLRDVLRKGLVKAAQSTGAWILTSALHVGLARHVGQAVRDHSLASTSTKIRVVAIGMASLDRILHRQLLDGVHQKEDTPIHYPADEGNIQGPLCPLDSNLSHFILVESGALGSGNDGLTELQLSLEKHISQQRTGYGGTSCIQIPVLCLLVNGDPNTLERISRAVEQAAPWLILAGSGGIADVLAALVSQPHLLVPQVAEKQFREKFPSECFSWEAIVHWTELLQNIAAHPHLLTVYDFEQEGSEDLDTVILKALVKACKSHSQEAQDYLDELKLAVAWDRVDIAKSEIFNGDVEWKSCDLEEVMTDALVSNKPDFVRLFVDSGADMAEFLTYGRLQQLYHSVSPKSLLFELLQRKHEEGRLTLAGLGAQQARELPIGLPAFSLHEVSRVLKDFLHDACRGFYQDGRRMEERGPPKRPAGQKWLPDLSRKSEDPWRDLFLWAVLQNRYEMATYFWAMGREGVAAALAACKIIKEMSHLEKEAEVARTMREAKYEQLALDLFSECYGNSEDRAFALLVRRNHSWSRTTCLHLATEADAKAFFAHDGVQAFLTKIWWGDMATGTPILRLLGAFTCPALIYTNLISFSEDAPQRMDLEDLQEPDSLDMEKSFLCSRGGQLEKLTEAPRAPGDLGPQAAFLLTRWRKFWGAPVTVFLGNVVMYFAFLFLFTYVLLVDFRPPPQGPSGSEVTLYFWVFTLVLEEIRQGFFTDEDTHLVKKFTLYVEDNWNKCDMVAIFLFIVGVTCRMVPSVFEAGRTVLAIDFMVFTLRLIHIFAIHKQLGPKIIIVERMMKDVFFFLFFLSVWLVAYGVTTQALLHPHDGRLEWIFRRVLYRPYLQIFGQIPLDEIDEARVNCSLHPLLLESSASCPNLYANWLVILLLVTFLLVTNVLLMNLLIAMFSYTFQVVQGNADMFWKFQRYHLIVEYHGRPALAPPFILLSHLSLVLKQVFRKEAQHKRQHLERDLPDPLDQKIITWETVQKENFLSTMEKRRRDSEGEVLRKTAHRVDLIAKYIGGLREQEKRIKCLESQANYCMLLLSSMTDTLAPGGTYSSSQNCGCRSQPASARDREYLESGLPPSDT
Protocol: as §1, §2, §3
This experiment contained in FIG. 8 compares mTRPM5 responses to the calcium ionophore ionomycin and various GPCR agonists. As shown in the left top panel HEK293 cells were transfected with a plasmid encoding mouse TRPM5 (red trace) or a control plasmid (pUC; blue trace). 48 hours later cells were loaded with a membrane potential dye (R-8034; Molecular Devices Corporation).
This experiment contained in FIG. 9 compares hTRPM5 and mTRPM5 responses to GPCR agonist compounds. As shown in the left panel HEK293 cells stably expressing the cycloheximide bitter receptor mT2R5 and the promiscuous G protein G[…]15 were transfected with a plasmid encoding for mouse TRPM05 or a control plasmid (pUC). 48 hours later cells were loaded with a membrane potential dye (R-8034; Molecular Devices Corporation).

[1] = tested on: HEK293 cells lacking hTRPM5; assay: Membrane potential dye assay in HEK293 cells lacking hTRPM5 (control plasmid pUC); assay type: cell-based, human; settings: agonist stimulation
Protocol: (§4) As shown in the Left Panel: HEK293 cells were transfected with a plasmid encoding hTRPM5. 48 hours later cells were loaded with either a membrane potential dye (Molecular Devices Corporation; R-8034 or DisBAC) or a Ca^2+-sensitive dye (Fluo3). […] As shown in the Right Panel: HEK293 cells were transfected with a control plasmid (pUC) and treated as described above.
This experiment the results of which are shown in FIG. 5 evaluated TRPM5 induced changes in membrane potential. As shown in the left panel HEK293 cells were transfected with plasmids encoding the H1 histamine receptor with (red trace) or without (blue trace) a plasmid encoding hTRPM5. 48 hours later cells were loaded with a membrane potential dye (R-8034; Molecular Devices Corporation).
(§5) In this experiment the results of which are contained in FIG. 11 a library of ˜15,000 compounds (10 uM) was screened for hTRPM5 modulators using clone #51 (described in FIG. 10). In our initial screening conditions hTRPM5 was maximally stimulated with carbachol, using concentrations of 50 uM to 100 uM.

Ca^2+ mobilization = assay: Ca2+ mobilization with Ca2+-sensitive dye (Fluo3) in HEK293 cells; assay type: cell-based, human
Protocol: as §4
This experiment the results of which are contained in FIG. 7 compared TRPM5 responses to the Ca++ ionophore ionomycin. As shown in the left panel HEK293 cells were transfected with a plasmid encoding hTRPM5. 48 hours later cells were loaded with either a membrane potential dye (R-8034; Molecular Devices Corporation) or a Ca^2+-sensitive dye (Fluo3).
as §5

Row | hTRPM5 activity produced (hTRPM5; 2 um carbachol) | dependence of agonist-induced change in membrane potential on extracellular Na+ (hTRPM5) | Compound | change in membrane potential in hTRPM5-expressing HEK293 cells (hTRPM5) | change in membrane potential in mouse TRPM5-expressing HEK293 cells (mouse TRPM5) | change in membrane potential in cells lacking hTRPM5 [1] | Ca^2+ response in control plasmid (pUC) transfected HEK293 cells (Ca^2+ mobilization) | Ca^2+ response in hTRPM5-transfected HEK293 cells (Ca^2+ mobilization) | change in membrane potential in hTRPM5-expressing cells not transfected with the agonist's receptor (hTRPM5) | change in membrane potential in mouse TRPM5 cells not transfected with the agonist's receptor (mouse TRPM5) | change in membrane potential in mT2R05 / G15 stable HEK293 cells transfected with human TRPM5 (hTRPM5; versus pUC control) | change in membrane potential in mT2R5 / G15 stable HEK293 cells transfected with mouse TRPM5 (mouse TRPM5; versus pUC control)
1 | 10-25% | only observed in the presence of NaCl | C[N+](C)(C)CCOC(N)=O [carbachol] | concomitant increase in membrane potential; also recorded: dose-dependent increase in membrane potential; also recorded: dose-dependent increase in membrane potential that is much greater than what is seen in cells not expressing hTRPM5 | dose-dependent increase in membrane potential | no change in membrane potential is observed; also recorded: no significant change in membrane potential | a significant increase in Ca^2+ is triggered | leads to Ca^2+ mobilization | – | – | – | –
2 | – | – | CNc1ccc2oc(C[C@H]3O[C@@]4(CC[C@H]3C)O[C@H]([C@H](C)C(=O)c3ccc[nH]3)[C@H](C)C[C@H]4C)nc2c1C(=O)O [A-23187] | TRPM5-dependent changes in membrane potential | TRPM5-dependent changes in membrane potential | – | – | – | – | – | – | –
3 | – | only observed in the presence of NaCl | NCCc1c[nH]cn1 [histamine] | dose-dependent increase in membrane potential | dose-dependent increase in membrane potential | no significant change in membrane potential | – | – | has no effect | did not have any effect | – | –
4 | – | – | C[C@H](CCC(=O)O)C[C@H](C)C[C@H](C)C(=O)/C=C(\O)[C@H](C)C[C@H](C)C/C=C/[C@@H](C)[C@@H](O)[C@@H](C)[C@@H](O)C[C@@H]1CC[C@@](C)([C@H]2CC[C@@](C)([C@@H](C)O)O2)O1 [ionomycin] | concomitant increase in membrane potential; also recorded: dose-dependent increase in membrane potential that is noticeably greater in hTRPM5-expressing cells; also recorded: TRPM5-dependent changes in membrane potential | dose-dependent increase in membrane potential that is significantly greater in mouse-TRPM5 transfected cells; also recorded: TRPM5-dependent changes in membrane potential | – | – | leads to Ca^2+ influx | – | – | – | –
5 | – | – | C[C@@H]1C[C@@H]([C@H](O)CC2CC(=O)NC(=O)C2)C(=O)[C@@H](C)C1 [cycloheximide] | – | – | – | – | – | – | – | dose-dependent increase in membrane potential that is much greater than what is seen in cells not expressing human TRPM5 | dose-dependent increase in membrane potential that was much greater than what is seen in cells not expressing mouse TRPM5

Row | Compound | hTRPM5 activity produced (hTRPM5; 2 um carbachol) | dependence of agonist-induced change in membrane potential on extracellular Na+ (hTRPM5) | change in membrane potential in hTRPM5-expressing HEK293 cells (hTRPM5) | change in membrane potential in mouse TRPM5-expressing HEK293 cells (mouse TRPM5) | change in membrane potential in cells lacking hTRPM5 [1] | Ca^2+ response in control plasmid (pUC) transfected HEK293 cells (Ca^2+ mobilization) | Ca^2+ response in hTRPM5-transfected HEK293 cells (Ca^2+ mobilization) | change in membrane potential in hTRPM5-expressing cells not transfected with the agonist's receptor (hTRPM5) | change in membrane potential in mouse TRPM5 cells not transfected with the agonist's receptor (mouse TRPM5) | change in membrane potential in mT2R05 / G15 stable HEK293 cells transfected with human TRPM5 (hTRPM5; versus pUC control) | change in membrane potential in mT2R5 / G15 stable HEK293 cells transfected with mouse TRPM5 (mouse TRPM5; versus pUC control)
6 | angiotensin II (DRVYIHPF) [AT1 angiotensin II receptor agonist] | – | only observed in the presence of NaCl | dose-dependent increase in membrane potential | dose-dependent increase in membrane potential | no significant change in membrane potential | – | – | did not have any effect | had no effect | – | –
